According to patent publication US11951095B2, “Non-hormonal compositions and methods for male contraception” (PHARMAJOR INTERNATIONAL, priority 2018, dated 2024):
Structures can show the parent of a compound that is named as a salt.

Legend:
male subjects [1] = details: in vivo; cited from earlier work
male subjects [2] = test: Example 3: single administration contraceptive effect, semen analysis (IR formulation); assay type: in vivo, human
Experimental: A study is undertaken to evaluate the effectiveness of the compositions of the present invention in the treatment of male subjects. The objective of the study is to determine whether oral intake of (R)-Silodosin formulation results in a contraceptive effect.
A total of 7 subjects, aged 18 to 40 years were enrolled in an open-label study. An initial analysis of each subject's semen, collected via masturbation after 3 days of abstinence, is performed by microscopic examination of the fresh semen. Each subject receives one single dose of 12 mg immediate release (R)-Silodosin.
A semen analysis of each subject is conducted 24 hours after the dosing.

healthy volunteer men = details: in vivo; cited from earlier work
prostatic smooth muscle = details: cited from earlier work
Healthy Volunteers [3] = details: 4 mg twice a day for 3 days; cited from earlier work
[4] = in vivo; cited from earlier work
sexually active men = details: in vivo; cited from earlier work
participants = details: cited from earlier work
[5] = cited from earlier work
[6] = 4 mg twice a day; cited from earlier work
[7] = cited from earlier work; remark: listed apart in the source
male = details: cited from earlier work
Healthy Volunteers [8] = details: cited from earlier work
[9] = single dose 12 mg, immediate release (IR) formulation, 24 h, N = 7
[10] = traditional formulations, with food

C[C@H](Cc1cc2c(c(C(N)=O)c1)N(CCCO)CC2)NCCOc1ccccc1OCC(F)(F)F [(R)-Silodosin, (−)-(R)-1-(3-hydroxypropyl)-5-[2-[[2-[2-(2,2,2-trifluoroethoxy)phenoxy]ethyl]amino]propyl]indoline-7-carboxamide]
rate of discomfort upon ejaculation (male subjects [1]): 100% | time for which contraception is maintained (male subjects [2]; after a 12-mg single dose): up to 24 h | Aspermia (subjects with effect) (male subjects [2]; [9]): 6/7 | Azoospermia (subjects with effect) (male subjects [2]; [9]): 1/7 | Total, aspermia or azoospermia (subjects with effect) (male subjects [2]; [9]): 7/7 | quality of orgasm (healthy volunteer men): decrease | uroselectivity compared with other alpha-1 blockers, such as tamsulosin and naftopidil (prostatic smooth muscle): greater | seminal emission (Healthy Volunteers [3]): complete lack of seminal emission | sexual desire [4]: decrease | erectile function (sexually active men): decrease | spermatozoa in the semen and post-analysis urine (participants; 8 mg for 7 days, 2 hours after intake): no spermatozoa | semen analysis after switch to placebo (participants; Day 8 to 15 placebo, from day 2 of placebo): normal semen analysis | unintended pregnancy (participants; on demand 8 mg prior to intercourse, 6 months): no unintended pregnancy | median Tmax ([5]; CDER NDA 22-206): about 2 hours | food effect on Cmax [5, 10]: lower | food effect on Tmax [5, 10]: delayed | ejaculatory disorder [6]: high incidence | solubility in acetic acid [7]: very soluble | solubility in alcohol [7]: freely soluble | solubility in water [7]: very slightly soluble

CC(COc1ccccc1)N(CCCl)Cc1ccccc1 (centres unmarked) [phenoxybenzamine]
effect following male orgasm (male; doses up to 20 mg/day): aspermia | reversal of ejaculation block with cessation of treatment (male; in vivo): fully reversed

CCOc1ccccc1OCCN[C@H](C)Cc1ccc(OC)c(S(N)(=O)=O)c1 [tamsulosin, (−)-(R)-5-[2-[[2-(o-Ethoxyphenoxy)ethyl]amino]propyl]-2-methoxybenzenesulfonamide, monohydrochloride]
ejaculation (Healthy Volunteers [8]; 0.8-mg dose): An ejaculation was reached | functional sperm count (Healthy Volunteers [8]; in vivo): significantly reduced | side effects including discomfort on ejaculation (Healthy Volunteers [8]; in vivo): reported by some subjects | volume of semen (Healthy Volunteers [8]; single dose of 0.4 or 0.8 mg, 4 to 6 hours after dosing): dose dependent decrease
